A short description of one data set: in vitro. To be noted: chicken, chick embryo fibroblast.
Another data set concerns Newcastle disease virus. The experiment in a line: microbe, parasite or virus in culture. It counts as cell-based. To be noted: for MIC: avian paramyxovirus 1, in Gallus gallus, 48 h, read-out: Minimum growth-inhibition concentration.

Molecules are shown by their SMILES. Structures can show the parent of a compound that is named as a salt.

Regarding `Cl.NCC12CCCC(C1)C1CCC2C1` (stereo not shown) [1-aminomethyltricyclo[4.3.1.1^2,5]undecane hydrochloride], the MCC at 48 h in “in vitro” came out at 40 µg/mL. In addition, the MIC in the data set with Newcastle disease virus is 40 µg/mL.
For the compound `NCC12CCCC(C1)C1CCC2C1` (stereo not shown) [compound of the formula (I), 1-aminomethyltricyclo[4.3.1.1^2,5]undecane], in the data set with Newcastle disease virus (compared with 1-aminotricyclo[4.3.1.1^2,5 ]undecane), the “inhibitory effect on the growth of viruses (in words)” value is on record as “inhibitory effect on the growth of viruses at a lower concentration than the earlier compound”. In addition, the “inhibitory effect on the growth of Newcastle disease virus (in words)” value in the data set on Newcastle disease virus (in chick embryo fibroblasts) is “excellent inhibitory effect”. For the same compound, the “fraction of the concentration of 1-aminotricyclo[4.3.1.1^2,5 ]undecane at which virus multiplication is inhibited” value with Newcastle disease virus (relative to 1-aminotricyclo[4.3.1.1^2,5 ]undecane, Newcastle disease virus in chick embryo fibroblasts) is listed as 1/2. Besides, the “fraction of the concentration of adamantylamine hydrochloride at which virus multiplication is inhibited” value in the data set on Newcastle disease virus (relative to adamantylamine hydrochloride, Newcastle disease virus in chick embryo fibroblasts) is given as “about 1/6”.
Compound `Cl.NC12CCCC(C1)C1CCC2C1` (stereo not shown) [1-Aminotricyclo-[4.3.1.1^2,5]undecane hydrochloride, reference compound] had an MCC at 48 h in “in vitro” of 87 µg/mL. In addition, the MIC in the data set on Newcastle disease virus amounted to 87 µg/mL.
In the case of `NC12CC3CC(CC(C3)C1)C2` [Adamantylamine hydrochloride, reference compound], in the data set “in vitro”, the MCC at 48 h worked out at 250 µg/mL. Further, the MIC in the data set with Newcastle disease virus was found to be 250 µg/mL.
